Experimental data: patent US12715867B2, “Agonists of free fatty acid receptor 1 and their use in diseases associated with said receptor” (HALO Therapeutics Ltd, priority 2020, dated 2026)

Tested on: C57Bl/6N male mice
Assay: OGTT testing in C57Bl/6N male mice (oral glucose tolerance test)
Type: in vivo
Conditions: single per os dose 60 min before glucose 2 g/kg; Z1558775684 20 mg/kg, Metformin 300 mg/kg; compared with Vehicle-treated group; 5 mice per group
Experimental: Values are expressed as means of 5 animals tested. For glucose tolerance test (GTT), mice were orally treated with glucose at dose of 2 g/kg at the dose volume of 10 ml/kg after a 6-hour fasting. Glucose measurements were performed immediately before compound treatment (−60 min), at −30 min, 0 min (before glucose administration), and then 15, 30, 60, 90 and 120 min after glucose administration.
Example 87: OGTT Testing in C57Bl/6N Male Mice
Each experimental group consisted of five male C57Bl/6N mice. Animals were dosed once perorally with 20 mg/kg of tested compound Z1558775684. A control group was dosed with vehicle on the same schedule. Metformin at the dosage of 300 mg/kg was used as reference compound.
Compound Z1558775684 was dissolved/suspended in DMSO—PEG400—physiological saline (20%:50%:30%) at concentration 4 mg/ml. Metformin was dissolved in the same vehicle at concentration 60 mg/ml. The test samples were administered per os in the volume corresponding to 5 ml/kg body weight.
Single doses of test samples were administered 60 min before glucose treatment at 3 p.m.
The blood glucose level was measured after 6-hour fasting using Call Plus glucometer and specific test strips. Blood was obtained from the tail vein by incision of the tail tip, 5-6 μl of blood was used for each assay. […]

Structure (SMILES)	glucose level during oral glucose tolerance test (OGTT)
CCc1nc(N)nc(SCc2ncc(-c3cccc(Cl)c3)o2)n1 [Compound Z1558775684, 4-(((5-(3-chlorophenyl)oxazol-2-yl)methyl)thio)-6-ethyl-1,3,5-triazin-2-amine]	Statistically significant decrease in glucose level
CN(C)C(=N)N=C(N)N [Metformin]	Statistically significant decrease in glucose level
